Measurements: US20060069076A1, “LXR/RXR-related methods and compositions” (priority 2004, published 2006)

What was measured:
Type in all cases: cell-based, mouse
[1] = test system: cellular cholesterol efflux, Neuro2a cells; assay: Cellular cholesterol efflux from ABCA1-expressing Neuro2a cells; details: expression of ABCA1 and addition of apoA-I (10 μg/ml, 6 h)
Protocol: The efflux experiments were performed as described (13). Briefly, Neuro2a cells were labeled with 1 μCi/ml [1.2-^3H(N)]-cholesterol (PerkinElmer Life Sciences) in DMEM containing 5 mM methyl-β-cyclodextrin:cholesterol at a molar ratio of 8:1 for 15 min at 37° C. After washing, the cells were equilibrated in DMEM, 0.2% bovine serum albumin for 30 min and then used for efflux experiments. […] The cells were lysed in 0.1 M sodium hydroxide, 0.1% SDS, and radioactivity was determined by liquid scintillation counting. Efflux was expressed as the percentage of radioactivity in the medium relative to the total radioactivity in cells and medium.
(§1) Cellular cholesterol mass was also measured.

[2] = test system: Aβ generation from C99 in Neuro2a cells; assay: γ-Secretase cleavage of C99 Myc in Neuro2a cells transfected with ABCA1; details: Neuro2a cells transfected with C99 Myc and ABCA1; apoA-I added; data not shown
Protocol: FIGS. 5A-5B: ABCA1 overexpression decreases β-cleavage of APPSw and γ-cleavage of the 99-amino acid C-terminal fragment of APP. A, Neuro2a-APPSw cells were transfected with either empty vector or vector containing ABCA1 cDNA. The β-cleavage product C99 was detected by immunoprecipitation of cell lysates with antibody 4G8 followed by immunoblotting with 6E10. Cellular APP (cAPP) level was measured by immunoblotting cell lysates. The data are the means±S.E. for five separate experiments; *, p<0.01 compared with mock (mk) transfected. B, Neuro2a cells were transfected with vector containing either C99 Myc alone or C99 Myc with ABCA1. Aβ was detected as in FIG. 3. Cellular C99 was detected by immunoprecipitation with anti-Myc antibody followed by Western blot with 6E10. The data are shown for three separate experiments conducted in duplicate. #, p<0.05 compared with C99 transfected alone.
Both β and γ-cleavage of APP are required for the generation of Aβ. A series of experiments were carried out to determine which step is affected by ABCA1 overexpression. To measure β-cleavage, the β-secretase cleavage product was immunoprecipitated (C99 ) from cell lysates. There was an 85% decrease of cellular C99 in Neuro2a-APPSw cells transiently transfected with ABCA1 compared with mock transfected control (FIG. 5A). γ-Secretase mediates the final step in Aβ generation (1). […]

[3] = test system: efflux of cellular phospholipids, Neuro2a cells; assay: Cellular phospholipid efflux from ABCA1-expressing Neuro2a cells; details: expression of ABCA1 and addition of apoA-I
[4] = test system: Aβ secretion from Neuro2a-APPSw cells; assay: Aβ secretion from ABCA1- or mock-transfected Neuro2a-APPSw cells with added apolipoproteins; details: apolipoprotein added for 6 h, compared with ABCA1 without apolipoprotein
Protocol: FIGS. 3A-3C: ABCA1 overexpression inhibits Aβ secretion.
FIG. 4: The effect of apoE isoforms on Aβ secretion.
as §1
Because apoE is a major apolipoprotein in the central nervous system and the apoE4 isoform is associated with increased risk of AD (19, 20), the effects of apoE on Aβ formation was also examined. […] Again, the major effect was attributable to ABCA1 expression alone.

[5] = test system: Aβ secretion from Neuro2a-APPSw cells; assay: Secreted Aβ from Neuro2a-APPSw cells after LXR activation (immunoprecipitation and immunoblotting)
Protocol: Neuro2a-APPSw cells were treated with LXR activators (TO or 22(R)-hydroxycholesterol) and in some cases also with RXR activator (9-cis-retinoic acid). Secreted Aβ (sAβ) was detected in medium by immunoprecipitation and immunoblotting. Cellular APP (cAPP) levels were measured by immunoblotting cell lysates. Western blots were scanned and quantified by ImageQuant. The bar graphs show the combined results (means±S.E.) from at least three independent experiments. A, cells were treated with increasing amounts of TO. B, cells were treated with mock transfection (control) or 1 μM TO, μM 9-cis-RA. C, cells were treated with mock transfection or 5 μM 22(R)-hydroxycholesterol (22(R)OHchol), 10 μM 9-cis-RA. #, p<0.05 compared with control. *, p<0.01 compared with control. […]
In experiments with LXR activation, the cells were first induced with activators for 24 h in DMEM, 5% lipoprotein-deficient serum. […] The immunoblots were developed using the ECL system (Pierce) scanned and quantified by ImageQuant (Molecular Dynamics). Quantitation of Aβ40 and Aβ42 was performed using a commercial Aβ enzyme-linked immunosorbent assay kit. […]
The cells were treated with increasing doses of the synthetic LXRα/β activator TO901317 (“TO”), and Aβ secretion into medium was measured by immunoprecipitation and Western blotting (FIG. 1A).

Compound: apoA-I: purified human apolipoprotein A-I, from Biodesign
- increase in cellular cholesterol efflux [1]: 1.0±0.1 % of total cellular cholesterol
- further decrease in Aβ generation from C99 [2]: did not provide a further decrease
- increase in efflux of cellular phospholipids [3]: 1.9 % of total cellular choline-labeled lipids
- further change in Aβ on adding apolipoprotein to ABCA1-expressing cells [4]: only a slight further decrease

Compound: O=S(=O)(c1ccccc1)N(CC(F)(F)F)c1ccc(C(O)(C(F)(F)F)C(F)(F)F)cc1 [TO901317]
- reduction in secretion of Aβ into medium ([5]; 1 μM TO, 24 h induction, 4 h medium, immunoprecipitation and Western blotting (FIG. 1A)): ~50%
- amount of soluble form of APP (APPsα) in medium ([5]; administration of the LXR activator, data not shown): not significantly changed
